Assay: Release Test: nitric oxide (NO) release profile by spectrophotometry (Griess test)
Assay type: physicochemical
Conditions: 4 mg product in 2.5 ml Griess reagent
Experimental: The nitric oxide (NO) release profile of the compounds of the invention was evaluated by spectrophotometry using the […]. The trend of NO release by the HA-Cys conjugate in S-nitroso form, prepared as described in example 13, is shown here by way of example. Briefly: 4 mg of the product is dissolved in 2.5 ml of Griess reagent in a UV-visible spectrophotometric cuvette. The solution is rapidly homogenised, placed in a double-beam spectrophotometer (Perkin Elmer Lambda 2), and the absorbance trend is measured at 540 nm over time against a blank consisting of Griess solution. The absorbance, i.e. the nitric oxide concentration, increases in the solution with an asymptotic trend, the plateau of which has not yet been reached 25 hrs after release. Assuming first-order kinetics, a decay constant amounting to 70 min^−1 is obtained.

HA-Cys-S-nitric Oxide p50 Derivative (750 kDa) [Example 13]
decay constant of NO release, assuming first-order kinetics (absorbance at 540 nm over time against Griess solution blank): 70 min⁻¹
time after release at which the plateau of NO concentration (absorbance) has not yet been reached (absorbance at 540 nm, asymptotic trend): > 25 h

Source: patent publication US8969320B2, “Hyaluronic acid derivatives containing groups able to release NO” (Fidia Farmaceutici S.P.A., priority 2007, dated 2015)
